# Measured values as given in patent publication US4835185A, “Immunomodulator for improving commercial performance of domestic animals” (Iowa State University Research Foundation, Inc., priority 1987, dated 1989).
# Like-named read-outs stand apart in the source and are kept apart here.
# Experiments:
# plasma cortisol = experiment: Plasma cortisol in pigs after test meals; assay type: in vivo
# Protocol: To determine if KIC could acutely alter cortisol concentrations, young pigs were fed meals supplemented with leucine or KIC and plasma cortisol was measured.
# In experiment 1, sixteen female pigs weighing 20-30 kg were used. Seven days before study, catheters were surgically placed in the right atria for blood sampling. Animals were housed in individual cages during the recovery period and had free access to water. Preceding the experiment, animals were fed twice daily a basal diet (2% of body weight per feeding). The basal diet consisted of a corn-soybean mix, adequate in all minerals and vitamins and containing approximately 14% crude protein. Test meals were formulated by additions to a basal diet. Five animals received the basal diet (control); five animals received the leucine meal, which had 2% leucine added to the basal diet; and six animals received the KIC diet, which had 2% KIC (sodium salt equivalent to 1.7% free acid) added to the basel diet. Studies were begun between 0800 and 0900 h after a 24-hr fast. Basal blood samples were taken at -20, -10 and -5 min. Animals were then offered 100 g of their respective test meal (time 0). Pigs were included in the study only if they consumed the entire meal in the first 20 min. […] Plasma was separated, Trasylol (FBA Pharmaceuticals, New York, NY) added (50 ul/ml), and plasma stored at -70 C. until analyzed.
# Cortisol was measured by coated tube kits (Gammacoat, Travenol-Genetech Diagnostics, Cambridge, MA). Leucine and KIC were measured by high pressure liquid chromatography. Crystalline leucine was obtained from Sigma Chemical (St. Louis, MO) and KIC-sodium was obtained from SOBAC (Paris, France). Statistical analysis of the individual pig responses was conducted on mean plasma concentrations before the meal (-20 to 0 min) and after the meal (120 to 240 min). When the overall treatment F-value was significant, differences between individual treatments were determined using the pooled SEM and a T-test.
# [1] = system: cholesterol in lean tissue and plasma; experiment: Lamb trials: cholesterol in lean tissue and plasma; assay type: in vivo, lambs (sheep)
# Text: The lambs used in Trial 1 consisted of medium-frame crossbred wethers and ewes weighing 26 to 31 kg. The lambs used in Trial 2 consisted of medium-framced crossbred rams weighing 18 to 25 kg. Each animal was raised as a single. The lambs were housed in a temperature controlled room in individual pens with nipple waterers. When received, the lamps were vaccinated for enterotoxemia. They were allowed to adjust to the pens and the environment for 10 days. One day before the trial began, the lambs were sheared and placed on their respective dietary treatments. The lamps were allotted blocking by weight and sex into two dietary treatment groups. Growth and feed consumption were measured bi-weekly. All lamb weights were taken after a 12 to 16 hour fast. The animals were slaughtered at 50 kg in the Iowa State University Meat laboratory facilities at Ames, Iowa. At slaughter, the lamb's internal organs and wool were weighed and sampled, loin eye area and back fat measured, and carcasses separated into fat, lean, and bone.
# The SMB (soybean meal-containing) and the CGM (corn-gluten-containing) diets (compositions given in Table A) were fed twice per day in quantities ensuring that feed was before the lambs at all times. The diets were calculated to be equivalent to each other with respect to metabolizable protein, ether extract, fiber, and minerals with the exception of calcium and phosphorus. […] The CGM diet was calculated to contain slightly more energy (TDN 81.7 vs. 79.0, NEm 1.88 v. 1.86, Neg. 1.23 vs. 1.22). […] The soybean meal ingredient contained about 3.5 wt % leucine, while the corn gluten meal ingredient contained about 15 wt % leucine. The CGM diet was therefore higher in leucine than the SBM diet, containing an estimated 16 wt % leucine as compared with an estimated 8 wt % leucine based on total crude protein in the diet.
# ^(8) Amount of cholesterol in lean tissue (ng/mg) and plasma (ng/ml).
# ^(1)- (8) See Table B, except cholesterol data is for lean tissue
# lymphocytes = experiment: Study of Immune Function: lymphocyte blastogenesis, sheep (experiments 1 and 2); assay type: cell-based, lambs (sheep)
# Protocol: A study was conducted to determine if KIC administration can alter white blood cell function, specifically T lymphocyte function, in growing sheep and cattle. Eighteen medium-framed crossbred male lambs were used in experiment 1. Lambs were randomly assigned to either a control diet (n=10) or a diet supplemented with 1% KIC (n=8). Animals were fed ad libitum in individual cages. At 100 and 108 days of treatment, 50-ml blood samples were collected for lymphocyte and neutrophil function tests.
# In experiment 2, 19 intact crossbred male lambs were randomly assigned to either a saline treatment group (n=9) or a KIC treatment group (n=10). Control lambs were injected with 50 ml of a saline solution, and KIC treated lambs were injected with 50 ml of a 5% solution of KIC (sodium salt) daily (~2.5 g KIC/day). All injections were made intraperitoneally in the right posterior abdominal region after disinfection of the area. At day 60 and day 66 of treatment, blood was collected for lymphocyte and neutrophil function tests.
# Sheep in experiments 1 and 2 were fed diets based on a mixture of 48% corn, 5% molasses, 20% alfalfa meal, 0.8% limestone, 0.6% salt-mineral-vitamin mix and ~25% of a protein supplement (either soybean meal, corn gluten meal, or corn gluten feed). The diets were isonitrogenous and analyzed to be ~20% crude protein and 89% dry matter. The KIC diet consisted of the basal diet to which was added 1% calcium-KIC, whereas the control diet was the basal diet plus 0.25% calcium carbonate.
# Blood was collected by jugular venapuncture into acid-citrate-dextrose anticoagulant. Lymphocytes and neutrophils were isolated, and lymphocyte blastogenesis and neutrophil function evaluated. KIC was obtained from SOBAC, Paris, France. […] Each experiment was statistically analyzed by analysis of variance. In sheep experiments, individual animals were the experimental units, whereas pen means were analyzed in the cattle experiment.
# ^1 Background (BKG), phytohemagglutininstimulated (PHA), concanavalin
# Astimulated (ConA), and pokeweed mitogenstimulated (PWM) blastogenesis
# were determined by measuring the incorporation ^3 H thymidine into
# [2] = Rumen degradation of KIC (nylon bag technique); set-up: species or system ruminants (rumen)
# Text: KIC pellets were made by mixing zein, ethanol, KIC, limestone, bentonite, and water in a ratio of […]. This mixture was extruded through a die of 15 mm directly into a vat of liquid nitrogen. The shattered pellets were spread out and allowed to air-dry for 2 days. The pellets were coated with zein (2% w/w) by spraying with a 30% zein solution made in 80% ethanol. The pellets again were air-dryed. Control pellets were made similarly to the KIC pellets except that the mixture was zein, limestone, ethanol, bentonite, and water in a ratio of 12:12:7.5:2.7:1. When KIC pellets were placed in the rumen (nylon bag technique), […] of the KIC added was present in the bags after 24 hr of rumen fermentation. It was estimated that uncoated KIC was 95% degraded in the rumen.
# Therefore, an attempt was made to protect KIC from ruminal degradation. KIC pellets, resistant to rumen degradation, were made by mixing zein, ethanol, KIC, limestone, bentonite and water in a ratio of 8.3:7.4:5.2:3:2:1. This mixture was extruded through a die of 15 mm directly into a vat of liquid nitrogen. The shattered pellets were spread out and allowed to air-dry for two days. The dried pellets were coated with zein (2% w/w) by spraying with a 30% zein solution made in 80% ethanol. The pellets again were air-dried. Control pellets were made similar to the KIC pellets except that the mixture was zein, limestone, ethanol, bentonite and water in a ratio of 12:12:7.5:2.7:1. When KIC pellets were placed in the rumen (nylon bag technique), 45% of the KIC added was present in the bags after 36 hr of rumen digestion.
structure (smiles),measurement,setting,value
"CC(C)CC(=O)C(=O)O [KIC, alpha-ketoisocaproate]",decrease in cortisol concentration,"plasma cortisol; 2% KIC, by 240-300 minutes after the meal, p<0.01",40%
same,"Plasma cortisol, Change","plasma cortisol; 2% in meal, control -0.09",-1.99 µg/dL
same,"Plasma cortisol, Post","plasma cortisol; 2% in meal, pre: leucine 2.8, KIC 4.7, pooled SEM 0.49",2.9 µg/dL
same,CHOLESTEROL PLASMA: amount of cholesterol in plasma,"[1]; Trial 1, CGM diet, 1% KIC (0%: 33)",32 ng/mL
same,CHOLESTEROL TISSUE: amount of cholesterol in lean tissue,"[1]; Trial 1, CGM diet, 1% KIC (0%: 40)",32 ng/mg
same,CHOLESTEROL PLASMA: amount of cholesterol in plasma,"[1]; Trial 1, SBM diet, 1% KIC (0%: 32)",23 ng/mL
same,CHOLESTEROL TISSUE: amount of cholesterol in lean tissue,"[1]; Trial 1, SBM diet, 1% KIC (0%: 80)",44 ng/mg
same,CHOLESTEROL: lean tissue,"[1]; Trial 2, CGM diet, 1% KIC (0%: 92.2), * p<.05",81.2 ng/mg
same,CHOLESTEROL: lean tissue,"[1]; Trial 2, SBM diet, 1% KIC (0%: 75.2)",83.2 ng/mg
same,BKG: background blastogenesis,"lymphocytes; Exp. 1, oral uncoated KIC 1% (control 466), p<.008",852 Counts/min per 2 × 10^5 cells
same,PHA: phytohemagglutinin-stimulated blastogenesis,"lymphocytes; Exp. 1, oral uncoated KIC 1% (control 6100), p<.003",16800 Counts/min per 2 × 10^5 cells
same,PWM: pokeweed mitogen-stimulated blastogenesis,"lymphocytes; Exp. 1, oral uncoated KIC 1% (control 19400), p<.77",17300 Counts/min per 2 × 10^5 cells
same,ConA: concanavalin A-stimulated blastogenesis,"lymphocytes; Exp. 1, oral uncoated KIC 1% (control 41100), p<.81",44700 Counts/min per 2 × 10^5 cells
same,BKG: background blastogenesis,"lymphocytes; Exp. 2, IP injected KIC (saline 752), p<.10",947 Counts/min per 2 × 10^5 cells
same,PHA: phytohemagglutinin-stimulated blastogenesis,"lymphocytes; Exp. 2, IP injected KIC (saline 8500), p<.09",12600 Counts/min per 2 × 10^5 cells
same,PWM: pokeweed mitogen-stimulated blastogenesis,"lymphocytes; Exp. 2, IP injected KIC (saline 21600), p<.72",29400 Counts/min per 2 × 10^5 cells
same,ConA: concanavalin A-stimulated blastogenesis,"lymphocytes; Exp. 2, IP injected KIC (saline 31200), p<.87",33500 Counts/min per 2 × 10^5 cells
same,increase of PHA stimulation,"lymphocytes; experiment 1, sheep, oral 1% KIC",280%
same,increase of PHA stimulation,"lymphocytes; experiment 2, sheep, IP",150%
same,degraded,"[2]; ""as much as"", unprotected, read-out: KIC that may be lost by rumen destruction",90 to 95%
same,degraded,"[2]; estimated, Example IV, read-out: uncoated KIC degraded in the rumen",95%
same,degraded,"[2]; preliminary experiments, Example VI, read-out: uncoated KIC degraded in the rumen",95%
